Experimental data from the CheMixHub viscosity set.

Test: xn = mol fraction of the nth substance listed

CCOC(C)=O + O
298.15 K, 101 kPa
Conditions	viscosity [mPa·s]
x1 = 0.00139	0.9095
x1 = 0.001837	0.9129
x1 = 0.003766	0.9354
x1 = 0.006372	0.9652
x1 = 0.006895	0.9678
x1 = 0.01022	1.004
x1 = 0.01327	1.036
x1 = 0.8902	0.4495
x1 = 0.9238	0.4395
x1 = 0.9579	0.4312

Cc1c[nH]c(=O)[nH]c1=O + O
viscosity [mPa·s], 101.3 kPa
Conditions	293.15 K	298.15 K	303.15 K	308.15 K	313.15 K	318.15 K
x1 = 0.000119	1.006	0.895	0.803	0.738	0.623	0.595
x1 = 0.000164	–	0.893	–	0.722	–	0.598
x1 = 0.0001877	1.008	0.897	0.805	0.74	0.625	0.597
x1 = 0.000266	–	0.895	–	0.723	–	0.6
x1 = 0.0003006	1.01	0.899	0.807	0.742	0.627	0.599
x1 = 0.0003339	–	0.896	–	0.724	–	0.6
x1 = 0.0003713	–	0.896	–	0.724	–	0.601
x1 = 0.0003733	1.012	0.901	0.809	0.744	0.629	0.601
x1 = 0.0004194	–	0.897	–	0.725	–	0.601
x1 = 0.0004572	1.014	0.903	0.811	0.746	0.631	0.603
x1 = 0.0004811	–	0.898	–	0.726	–	0.602
x1 = 0.0005454	1.016	0.905	0.813	0.748	0.633	0.605

Nc1cc[nH]c(=O)n1 + O
viscosity [mPa·s], 101.3 kPa
Conditions	x1 = 0.000131	x1 = 0.0001895	x1 = 0.0002822	x1 = 0.000457	x1 = 0.0004889	x1 = 0.0005591
298.15 K	0.892	0.893	0.894	0.895	0.896	0.897
308.15 K	0.721	0.722	0.722	0.724	0.724	0.725
318.15 K	0.598	0.598	0.599	0.601	0.601	0.602

[O-][Cl+3]([O-])([O-])O[Cl+3]([O-])([O-])[O-] + O
293.15 K, 101.33 kPa
Conditions	viscosity [mPa·s]
x1 = 0.428	1.179
x1 = 0.46	0.949
x1 = 0.474	0.893
x1 = 0.491	0.821
x1 = 0.499	0.796
x1 = 0.51	0.762
x1 = 0.519	0.754
x1 = 0.602	0.726
x1 = 0.711	0.714
x1 = 0.787	0.713
x1 = 0.818	0.709
x1 = 0.906	0.708

CCCCCCC(=O)O + c1ccccc1
298.15 K, 101 kPa
Conditions	viscosity [mPa·s]
x1 = 0.03	0.631
x1 = 0.063	0.666
x1 = 0.096	0.705
x1 = 0.13	0.752
x1 = 0.29	0.99
x1 = 0.38	1.168
x1 = 0.47	1.49
x1 = 0.71	2.3

CCOC(C)=O + c1ccccc1
Conditions	viscosity [mPa·s]
298 K, 101.3 kPa, x2 = 0.1715	0.478
298 K, 101.3 kPa, x2 = 0.3251	0.489
298 K, 101.3 kPa, x2 = 0.5324	0.507
298 K, 101.3 kPa, x2 = 0.6702	0.534
298 K, 101.3 kPa, x2 = 0.8535	0.57
298.15 K, 101 kPa, x1 = 0.0447	0.588
298.15 K, 101 kPa, x1 = 0.1505	0.556
298.15 K, 101 kPa, x1 = 0.2473	0.5181
298.15 K, 101 kPa, x1 = 0.2482	0.531
298.15 K, 101 kPa, x1 = 0.3049	0.499
298.15 K, 101 kPa, x1 = 0.3312	0.499
298.15 K, 101 kPa, x1 = 0.351	0.507
298.15 K, 101 kPa, x1 = 0.4099	0.483
298.15 K, 101 kPa, x1 = 0.4481	0.489
298.15 K, 101 kPa, x1 = 0.453	0.4803
298.15 K, 101 kPa, x1 = 0.461	0.4782
298.15 K, 101 kPa, x1 = 0.4981	0.48
298.15 K, 101 kPa, x1 = 0.5495	0.472
298.15 K, 101 kPa, x1 = 0.6517	0.458
298.15 K, 101 kPa, x1 = 0.7368	0.4446
298.15 K, 101 kPa, x1 = 0.7524	0.446
298.15 K, 101 kPa, x1 = 0.8551	0.437
298.15 K, 101 kPa, x1 = 0.9445	0.431
298.15 K, 101 kPa, x2 = 0.1725	0.442
298.15 K, 101 kPa, x2 = 0.5441	0.487
298.15 K, 101 kPa, x2 = 0.826	0.551
308.15 K, 101 kPa, x1 = 0.0447	0.515
308.15 K, 101 kPa, x1 = 0.1505	0.492
308.15 K, 101 kPa, x1 = 0.2482	0.472
308.15 K, 101 kPa, x1 = 0.351	0.455
308.15 K, 101 kPa, x1 = 0.4481	0.44
308.15 K, 101 kPa, x1 = 0.4981	0.433
308.15 K, 101 kPa, x1 = 0.5495	0.426
308.15 K, 101 kPa, x1 = 0.6517	0.415
308.15 K, 101 kPa, x1 = 0.7524	0.405
308.15 K, 101 kPa, x1 = 0.8551	0.396
308.15 K, 101 kPa, x1 = 0.9445	0.39
318 K, 101.3 kPa, x2 = 0.1624	0.3894
318 K, 101.3 kPa, x2 = 0.3233	0.3971
318 K, 101.3 kPa, x2 = 0.5251	0.4129
318 K, 101.3 kPa, x2 = 0.671	0.4287
318 K, 101.3 kPa, x2 = 0.8633	0.4505

CCOc1ccccc1 + c1ccccc1
viscosity [mPa·s], 101.33 kPa
Conditions	298.15 K	323.15 K
x1 = 0.2	0.68	0.49
x1 = 0.5	0.823	0.576
